Source: patent US5140014A (Abbott Laboratories, priority 1989, dated 1992)
In brackets after ≈: the same amount, converted by molar mass. Read-outs that look alike come from different tables or passages of the source.

Tests used:
Test in all cases: in vitro antibacterial activity, agar dilution method (MIC)
Assay type in all cases: cell-based
Escherichia Coli = conditions: Escherichia coli, BHI agar, 20-24 hours, read-out: MIC
Protocol: (§1) Compounds 1 to 8 were evaluated for antibacterial activity by the agar dilution method to determine the degree of in vitro susceptibility of aerobic microorganisms to antimicrobial agents. The test medium was Brain Heart Infusion (BHI) agar. The antibacterial agent was dissolved at a concentration of 2,000 ug/mL. Test plates were then prepared, usually 12 two-fold dilutions. After adding the sample to the plates, 10 mL of cooled BHI agar medium was added to each plate. The organisms were grown overnight in BHI broth (Difco) in a 35°-37° C. incubator.
(§2) On the day of testing, the bacterial suspensions were diluted 1:100 in sterile distilled water, except for a few slow-growing organisms (usually Micrococcus and Streptococcus) which were diluted 1:10. The plate was then inoculated with approximately 10^4 organisms. This was incubated in a 35°-37° C. incubator for 20-24 hours. Thereafter, the plates were read to determine the minimum inhibitory concentration (MIC) defined as the lowest concentration of drug yielding no growth on the plate, a slight haze, or sparsely isolated colonies on the inoculum spot as compared to the growth control.

Pseudomonas Cepacia = conditions: Burkholderia cepacia; strain 296I; BHI agar, 20-24 hours; read-out: MIC
Protocol: as §1, §2

Pseudomonas Aeruginosa = conditions: Pseudomonas aeruginosa, BHI agar, 20-24 hours, read-out: MIC
Protocol: (§3) The test medium was Brain Heart Infusion (BHI) agar. The antibacterial agent was dissolved at a concentration of 2,000 ug/mL. Test plates were then prepared, usually 12 two-fold dilutions. After adding the sample to the plates, 10 mL of cooled BHI agar medium was added to each plate. The organisms were grown overnight in BHI broth (Difco) in a 35°-37° C. incubator.
as §2

[1] = system: Staphylococcus Epidermidis; conditions: Staphylococcus epidermidis, strain 3519; BHI agar, 20-24 hours; read-out: MIC
Protocol: as §3, §2

Acinetobacter Sp = conditions: Acinetobacter, strain CMX 669; BHI agar, 20-24 hours; read-out: MIC
Protocol: as §3, §2

Streptococcus Bovis = conditions: Streptococcus equinus, strain A5169; BHI agar, 20-24 hours
Protocol: as §3, §2

Enterococcus Faecium = conditions: Enterococcus faecium, ATCC8043, strain ATCC 8043; BHI agar, 20-24 hours; read-out: MIC
Protocol: as §3, §2

Staphylococcus Aureus = conditions: Staphylococcus aureus
Protocol: as §3, §2

Haemophilus Influenzae = conditions: Haemophilus influenzae, BHI agar, 20-24 hours
Protocol: as §3, §2

Micrococcus Luteus = conditions: Micrococcus luteus
Protocol: as §3, §2

Streptococcus Pyogenes = conditions: Streptococcus pyogenes
Protocol: as §3, §2

Providencia Stuartii = conditions: Providencia stuartii; strain CMX 640; BHI agar, 20-24 hours; read-out: MIC
Protocol: as §3, §2

Klebsiella Pneumoniae = conditions: Klebsiella pneumoniae, ATCC8045, strain ATCC 8045; BHI agar, 20-24 hours; read-out: MIC
Protocol: as §3, §2

Streptococcus Agalactiae = conditions: Streptococcus agalactiae, strain CMX 508; BHI agar, 20-24 hours; read-out: MIC
Protocol: as §3, §2

Enterobacter Aerogenes = conditions: Klebsiella aerogenes, ATCC13048, strain ATCC 13048; BHI agar, 20-24 hours; read-out: MIC
Protocol: as §3, §2

[2] = NCTC10649, strain NCTC 10649, BHI agar, 20-24 hours, read-out: MIC
[3] = strain 45, BHI agar, 20-24 hours, read-out: MIC
[4] = strain 45 RAR2, BHI agar, 20-24 hours, read-out: MIC
[5] = strain 642A, BHI agar, 20-24 hours, read-out: MIC
[6] = strain A5177, BHI agar, 20-24 hours, read-out: MIC
[7] = strain CMX 553, BHI agar, 20-24 hours, read-out: MIC
[8] = ATCC43095, strain ATCC 43095, read-out: MIC
[9] = ATCC4698, strain ATCC 4698, BHI agar, 20-24 hours, read-out: MIC
[10] = strain 930 CONST, BHI agar, 20-24 hours, read-out: MIC
[11] = strain 2548 INDUC, BHI agar, 20-24 hours, read-out: MIC

Compound: CCC1OC(=O)CC(O)C(C)C(OC2OC(C)CC(N(C)C)C2O)C(CC=O)CC(C)C(N(C)C)CCC(C)=CC1COC(C)=O (stereo not drawn) [Example 8, [9S]-23-O-Acetyl-9-deoxo-4'-deoxy-10,11-dihydro-9-N,N-dimethylamino-5-O-mycaminosyl-tylonide]
- MIC (Escherichia Coli; strain DC-2): 25 µg/mL (≈ 38.2 µM)
- MIC (Escherichia Coli; strain H560): 6.2 µg/mL (≈ 9.47 µM)
- MIC (Escherichia Coli; strain JUHL): 50 µg/mL (≈ 76.3 µM)
- MIC (Escherichia Coli; strain KNK 437): 25 µg/mL (≈ 38.2 µM)
- MIC (Escherichia Coli; strain SS): 0.2 µg/mL (≈ 0.305 µM)
- MIC (Pseudomonas Cepacia): > 100 µg/mL
- MIC (Pseudomonas Aeruginosa; strain A5007): > 100 µg/mL
- MIC (Pseudomonas Aeruginosa; strain BMH10): > 100 µg/mL
- MIC (Pseudomonas Aeruginosa; strain K799/61): 6.2 µg/mL (≈ 9.47 µM)
- MIC (Pseudomonas Aeruginosa; strain K799/WT): > 100 µg/mL
- MIC [1]: 1.56 µg/mL (≈ 2.38 µM)
- MIC (Acinetobacter Sp): 12.5 µg/mL (≈ 19.1 µM)
- MIC (Streptococcus Bovis): 0.1 µg/mL (≈ 0.153 µM)
- MIC (Enterococcus Faecium): 1.56 µg/mL (≈ 2.38 µM)
- MIC (Staphylococcus Aureus; ATCC6538P, strain ATCC 6538P, BHI agar, 20-24 hours, read-out: MIC): 3.1 µg/mL (≈ 4.73 µM)
- MIC (Staphylococcus Aureus; [2]): 0.78 µg/mL (≈ 1.19 µM)
- MIC (Staphylococcus Aureus; [3]): 3.1 µg/mL (≈ 4.73 µM)
- MIC (Staphylococcus Aureus; [4]): 3.1 µg/mL (≈ 4.73 µM)
- MIC (Staphylococcus Aureus; [5]): 3.1 µg/mL (≈ 4.73 µM)
- MIC (Staphylococcus Aureus; [6]): 1.56 µg/mL (≈ 2.38 µM)
- MIC (Staphylococcus Aureus; [7]): 3.1 µg/mL (≈ 4.73 µM)
- MIC (Haemophilus Influenzae; ATCC9795, strain ATCC 9795, read-out: MIC): 2 µg/mL (≈ 3.05 µM)
- MIC (Haemophilus Influenzae; ATCC10211, strain ATCC 10211, read-out: MIC): 2 µg/mL (≈ 3.05 µM)
- MIC (Haemophilus Influenzae; ATCC19418, strain ATCC 19418, read-out: MIC): 2 µg/mL (≈ 3.05 µM)
- MIC (Haemophilus Influenzae; [8]): 2 µg/mL (≈ 3.05 µM)
- MIC (Haemophilus Influenzae; strain 503B, read-out: MIC): 2 µg/mL (≈ 3.05 µM)
- MIC (Haemophilus Influenzae; strain 504, read-out: MIC): 2 µg/mL (≈ 3.05 µM)
- MIC (Haemophilus Influenzae; strain 519A): 1 µg/mL (≈ 1.53 µM)
- MIC (Haemophilus Influenzae; strain 566A, read-out: MIC): 2 µg/mL (≈ 3.05 µM)
- MIC (Haemophilus Influenzae; strain 588A, read-out: MIC): 2 µg/mL (≈ 3.05 µM)
- MIC (Haemophilus Influenzae; strain 632A, read-out: MIC): 2 µg/mL (≈ 3.05 µM)
- MIC (Haemophilus Influenzae; strain 667A, read-out: MIC): 2 µg/mL (≈ 3.05 µM)
- MIC (Haemophilus Influenzae; strain 747C, read-out: MIC): 2 µg/mL (≈ 3.05 µM)
- MIC (Haemophilus Influenzae; strain 751): 8 µg/mL (≈ 12.2 µM)
- MIC (Haemophilus Influenzae; strain 1177, read-out: MIC): 0.25 µg/mL (≈ 0.382 µM)
- MIC (Haemophilus Influenzae; strain 1435): 1 µg/mL (≈ 1.53 µM)
- MIC (Haemophilus Influenzae; strain DILL AMP R, read-out: MIC): 2 µg/mL (≈ 3.05 µM)
- MIC (Haemophilus Influenzae; strain SOL AMP R, read-out: MIC): 2 µg/mL (≈ 3.05 µM)
- MIC (Haemophilus Influenzae; strain SPK AMP R, read-out: MIC): 2 µg/mL (≈ 3.05 µM)
- MIC (Micrococcus Luteus; [9]): 0.78 µg/mL (≈ 1.19 µM)
- MIC (Micrococcus Luteus; ATCC9341, strain ATCC 9341, BHI agar, 20-24 hours, read-out: MIC): 0.2 µg/mL (≈ 0.305 µM)
- MIC (Streptococcus Pyogenes; [10]): 50 µg/mL (≈ 76.3 µM)
- MIC (Streptococcus Pyogenes; [11]): 1.56 µg/mL (≈ 2.38 µM)
- MIC (Streptococcus Pyogenes; strain EES61, BHI agar, 20-24 hours, read-out: MIC): 0.78 µg/mL (≈ 1.19 µM)
- MIC (Providencia Stuartii): > 100 µg/mL
- MIC (Klebsiella Pneumoniae): 50 µg/mL (≈ 76.3 µM)
- MIC (Streptococcus Agalactiae): 0.39 µg/mL (≈ 0.596 µM)
- MIC (Enterobacter Aerogenes): 50 µg/mL (≈ 76.3 µM)

Compound: CCC1OC(=O)CC(O)C(C)C(OC2OC(C)CC(N(C)C)C2O)C(CC=O)CC(C)C(N(C)C)C=CC2(C)OC2C1C (stereo not drawn) [Example 1, [9R]-9-Deoxo-9-N,N-dimethylamino-rosaramicin]
- MIC (Escherichia Coli; strain DC-2): 3.1 µg/mL (≈ 5.08 µM)
- MIC (Escherichia Coli; strain H560): 0.78 µg/mL (≈ 1.28 µM)
- MIC (Escherichia Coli; strain JUHL): 6.2 µg/mL (≈ 10.2 µM)
- MIC (Escherichia Coli; strain KNK 437): 6.2 µg/mL (≈ 10.2 µM)
- MIC (Escherichia Coli; strain SS): 0.1 µg/mL (≈ 0.164 µM)
- MIC (Pseudomonas Cepacia): 100 µg/mL (≈ 164 µM)
- MIC (Pseudomonas Aeruginosa; strain A5007): > 100 µg/mL
- MIC (Pseudomonas Aeruginosa; strain BMH10): 50 µg/mL (≈ 81.9 µM)
- MIC (Pseudomonas Aeruginosa; strain K799/61): 0.78 µg/mL (≈ 1.28 µM)
- MIC (Pseudomonas Aeruginosa; strain K799/WT): 50 µg/mL (≈ 81.9 µM)
- MIC [1]: 0.78 µg/mL (≈ 1.28 µM)
- MIC (Acinetobacter Sp): 1.56 µg/mL (≈ 2.55 µM)
- MIC (Streptococcus Bovis): 0.05 µg/mL (≈ 0.0819 µM)
- MIC (Enterococcus Faecium): 0.39 µg/mL (≈ 0.638 µM)
- MIC (Staphylococcus Aureus; ATCC6538P): 0.78 µg/mL (≈ 1.28 µM)
- MIC (Staphylococcus Aureus; [2]): 0.78 µg/mL (≈ 1.28 µM)
- MIC (Staphylococcus Aureus; [3]): 0.78 µg/mL (≈ 1.28 µM)
- MIC (Staphylococcus Aureus; [4]): 0.78 µg/mL (≈ 1.28 µM)
- MIC (Staphylococcus Aureus; [5]): 0.78 µg/mL (≈ 1.28 µM)
- MIC (Staphylococcus Aureus; [6]): 1.56 µg/mL (≈ 2.55 µM)
- MIC (Staphylococcus Aureus; [7]): 0.78 µg/mL (≈ 1.28 µM)
- MIC (Haemophilus Influenzae; ATCC9795, strain ATCC 9795): 1 µg/mL (≈ 1.64 µM)
- MIC (Haemophilus Influenzae; ATCC10211, strain ATCC 10211): 1 µg/mL (≈ 1.64 µM)
- MIC (Haemophilus Influenzae; ATCC19418, strain ATCC 19418): 1 µg/mL (≈ 1.64 µM)
- MIC (Haemophilus Influenzae; [8]): 0.25 µg/mL (≈ 0.409 µM)
- MIC (Haemophilus Influenzae; strain 503B): 1 µg/mL (≈ 1.64 µM)
- MIC (Haemophilus Influenzae; strain 504): 1 µg/mL (≈ 1.64 µM)
- MIC (Haemophilus Influenzae; strain 519A, read-out: MIC): 0.5 µg/mL (≈ 0.819 µM)
- MIC (Haemophilus Influenzae; strain 566A, read-out: MIC): 2 µg/mL (≈ 3.27 µM)
- MIC (Haemophilus Influenzae; strain 588A): 1 µg/mL (≈ 1.64 µM)
- MIC (Haemophilus Influenzae; strain 632A): 1 µg/mL (≈ 1.64 µM)
- MIC (Haemophilus Influenzae; strain 667A): 1 µg/mL (≈ 1.64 µM)
- MIC (Haemophilus Influenzae; strain 747C): 1 µg/mL (≈ 1.64 µM)
- MIC (Haemophilus Influenzae; strain 751, read-out: MIC): 2 µg/mL (≈ 3.27 µM)
- MIC (Haemophilus Influenzae; strain 1177, read-out: MIC): 0.06 µg/mL (≈ 0.0982 µM)
- MIC (Haemophilus Influenzae; strain 1435, read-out: MIC): 0.5 µg/mL (≈ 0.819 µM)
- MIC (Haemophilus Influenzae; strain DILL AMP R): 1 µg/mL (≈ 1.64 µM)
- MIC (Haemophilus Influenzae; strain SOL AMP R): 1 µg/mL (≈ 1.64 µM)
- MIC (Haemophilus Influenzae; strain SPK AMP R): 1 µg/mL (≈ 1.64 µM)
- MIC (Micrococcus Luteus; [9]): 0.2 µg/mL (≈ 0.327 µM)
- MIC (Micrococcus Luteus; ATCC9341): 0.1 µg/mL (≈ 0.164 µM)
- MIC (Streptococcus Pyogenes): 0.05 µg/mL (≈ 0.0819 µM)
- MIC (Streptococcus Pyogenes; [10]): > 100 µg/mL
- MIC (Streptococcus Pyogenes; [11]): 0.39 µg/mL (≈ 0.638 µM)
- MIC (Providencia Stuartii): > 100 µg/mL
- MIC (Klebsiella Pneumoniae): 12.5 µg/mL (≈ 20.5 µM)
- MIC (Streptococcus Agalactiae): 0.1 µg/mL (≈ 0.164 µM)
- MIC (Enterobacter Aerogenes): 6.2 µg/mL (≈ 10.2 µM)
